Reference: US12612465B2, “Formulations comprising PCSK9 specific monoclonal antibodies” (Amgen Inc., priority 2012, dated 2026)

Target: PCSK9 (Homo sapiens, UniProt Q8NBP7)
Assay: 12 week monotherapy dose-ranging study, Framingham risk 10% or less (Example 24)
Format: in vivo
Set-up: endogenous in cells; host or cells: human subjects, in vivo
Method: Ezetimibe was not blinded. The end-of-study visit and the last estimation of lipids was at week 12 for subjects on Q4W IP schedule or on ezetimibe and week 14 for subjects on Q2W IP schedule.
Males and females, ≥18 to ≤75 years of age, were eligible for this study. Fasting LDL-C was ≥100 mg/dL (2.6 mmol/L) and ≤190 mg/dL (4.9 mmol/L) and fasting triglycerides ≤400 mg/dL (4.5 mmol/L) by central laboratory at screening.
The primary endpoint was the percent change from baseline in LDL-C at week 12. Secondary endpoints included percent changes in apolipoprotein B (ApoB), lipoprotein (a) (Lp(a)), and in the ratio of total cholesterol to high-density lipoprotein (HDL)-C. Tolerability and safety were also evaluated.

Chain of PCSK9 (Q8NBP7 153-692): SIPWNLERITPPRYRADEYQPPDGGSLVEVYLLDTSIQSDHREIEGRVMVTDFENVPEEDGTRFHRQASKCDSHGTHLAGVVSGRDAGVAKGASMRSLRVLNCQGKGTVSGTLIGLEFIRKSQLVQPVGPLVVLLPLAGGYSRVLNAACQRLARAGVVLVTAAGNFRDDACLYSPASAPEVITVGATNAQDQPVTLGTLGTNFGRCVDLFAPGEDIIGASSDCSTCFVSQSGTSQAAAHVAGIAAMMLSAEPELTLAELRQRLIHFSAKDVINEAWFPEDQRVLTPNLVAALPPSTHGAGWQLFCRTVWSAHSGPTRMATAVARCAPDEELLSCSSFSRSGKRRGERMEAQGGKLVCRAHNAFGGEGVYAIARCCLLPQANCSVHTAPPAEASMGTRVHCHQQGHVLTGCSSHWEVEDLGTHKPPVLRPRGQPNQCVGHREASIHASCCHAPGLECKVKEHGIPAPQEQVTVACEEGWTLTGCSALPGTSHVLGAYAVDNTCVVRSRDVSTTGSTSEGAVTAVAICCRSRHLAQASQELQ

O=C1[C@H](CC[C@H](O)c2ccc(F)cc2)[C@@H](c2ccc(O)cc2)N1c1ccc(F)cc1 [Ezetimibe, ezetimibe, reference compound]
Least squares mean percent change from baseline in LDL-C, week 12 (Ezetimibe QD (N = 45)): −14.26%
percent change from baseline in LDL-C (ezetimibe QD PO, week 12, final data): 14%
